US7772275B2, “Compositions and method for treating affective, painful or allergic disorders” (Gideon Pharmaceuticals, Inc., priority 2002, dated 2010)

Columns and labels:
[1] = in animals; 'purportedly'; cited from earlier work
[2] = test system: pruritic skin lesions of atopic dermatitis; test: Cream applied to pruritic skin lesions by patients with atopic dermatitis; type: in vivo, human; details: cream 1.0% by weight, applied two to four times daily
Description: A cream containing cis doxepin isomer 1.0% by weight is applied two to four times daily to pruritic skin lesions by patients with atopic dermatitis.

[3] = Applicant's evaluation of sedation with the cis isomer at therapeutically effective dosages; type: in vivo
Description: In an attempt to discover a compound that might have similar effectiveness to doxepin hydrochloride U.S.P. but less associated sedation, the applicant has evaluated the cis isomer, which as mentioned above constitutes less than 18.1 % of doxepin hydrochloride. […] The invention includes pharmaceutical compositions of cis doxepin suitable for administration to patients with affective disorders, painful disorders, or allergic disorders.

## CN(C)CC/C=C1/c2ccccc2COc2ccccc21.Cl [cis doxepin hydrochloride]
[1]
  potency compared with doxepin hydrochloride U.S.P.: more potent
[2]
  relief of itching: provides for relief of itching
  resolution of the skin lesions: more prompt resolution of the skin lesions
  sedation compared with prior art doxepin creams in which the trans isomer is predominant: without producing the incidence or severity of sedation
[3]
  sedation compared with doxepin hydrochloride U.S.P.: produces less sedation
